Laboratory results: the NIST ThermoML archive (doi:10.1021/acs.jced.6b00470)

Key:
[1] = Liquid; for mass density / viscosity: 101.33 kPa; for mass density: Vibrating tube method; for viscosity: Vibrating wire viscometry; for vapor or sublimation pressure: Ebulliometric method (Recirculating still)
[2] = refractive index (other wavelength) (dimensionless); conditions: 100 kPa, Liquid, Standard Abbe refractometry

COC(=O)c1ccc(C(C)(C)C)cc1 [methyl 4-tert-butylbenzoate]
[1]
Conditions	mass density [kg/m3]	vapor or sublimation pressure [kPa]	viscosity [mPa·s]
293.15 K	1008.55	–	6.867
298.15 K	1004.06	–	5.867
303.15 K	999.54	–	5.013
308.15 K	994.01	–	4.291
313.15 K	989.09	–	3.687
318.15 K	983.89	–	3.188
323.15 K	979.29	–	2.781
328.15 K	974.01	–	2.451
333.15 K	969.29	–	2.185
338.15 K	964.47	–	1.969
343.15 K	959.5	–	1.79
348.15 K	954.38	–	1.634
353.15 K	948.71	–	1.487
398.3 K	–	1.21	–
408.4 K	–	1.89	–
411.3 K	–	2.13	–
421.3 K	–	3.19	–
430.4 K	–	4.51	–
434.9 K	–	5.32	–
440.6 K	–	6.53	–
446.1 K	–	7.93	–
448.2 K	–	8.53	–
452.4 K	–	9.87	–
454.3 K	–	10.53	–
457.2 K	–	11.6	–
459.7 K	–	12.61	–
462.6 K	–	13.87	–
464.3 K	–	14.67	–
466.3 K	–	15.67	–
467.2 K	–	16.13	–
470.7 K	–	18	–
473.6 K	–	19.73	–
475.1 K	–	20.67	–
477.9 K	–	22.53	–
480.1 K	–	24.13	–
482.4 K	–	25.87	–
483.3 K	–	26.53	–
484.9 K	–	27.88	–
486.4 K	–	29.13	–
487.9 K	–	30.4	–
489.5 K	–	31.86	–
490.6 K	–	32.93	–
492.4 K	–	34.66	–

refractive index, [2]
Conditions	Wavelength=404.7 nm	Wavelength=435.8 nm	Wavelength=486.1 nm	Wavelength=546.1 nm	Wavelength=587.6 nm	Wavelength=589.3 nm	Wavelength=632.8 nm	Wavelength=644 nm	Wavelength=706.5 nm
293.15 K	1.53993	1.53137	1.52182	1.51423	1.51053	1.51039	1.50735	1.50663	1.50334
298.15 K	1.53745	1.52893	1.51944	1.51188	1.5082	1.50807	1.50504	1.50433	1.50105
303.15 K	1.5352	1.52672	1.51725	1.50975	1.50608	1.50595	1.50293	1.50222	1.49897
308.15 K	1.53292	1.52448	1.51505	1.50756	1.50382	1.50368	1.50107	1.50004	1.49686
313.15 K	1.5307	1.52231	1.5129	1.50548	1.50185	1.50172	1.49872	1.49802	1.49479
318.15 K	1.52841	1.52004	1.5107	1.50329	1.4997	1.49957	1.49659	1.49589	1.49268
323.15 K	1.52614	1.5178	1.50849	1.50112	1.49755	1.49742	1.49445	1.49375	1.49056
328.15 K	1.52383	1.51554	1.50627	1.49894	1.49537	1.49525	1.49225	1.49161	1.48842
333.15 K	1.52158	1.51332	1.50407	1.49678	1.49326	1.49314	1.4902	1.4895	1.48634
338.15 K	1.51926	1.51104	1.50186	1.4946	1.49108	1.49096	1.48801	1.48735	1.48419
343.15 K	1.51699	1.50881	1.49967	1.49246	1.48895	1.48883	1.48591	1.48523	1.48208
348.15 K	1.5147	1.50655	1.49745	1.49026	1.48678	1.48667	1.48376	1.48309	1.47995
353.15 K	1.51239	1.50427	1.49523	1.48807	1.48461	1.48449	1.48162	1.48094	1.47781
